This is an account of results in US10087166B2, “Cyclic amine azaheterocyclic carboxamides” (Merck Patent GmbH, priority 2010, dated 2018).

The target of the experiment is T1, P70S6K (Homo sapiens, UniProt P23443, T412E).
T1 construct: purchased Millipore
As to the kind of experiment: P70S6K enzyme assay. The class given is biochemical. As to conditions: P70S6K T412E mutant 3 nM, 24 μM ATP, FITC-AHA-AKRRRLSSLRA-OH substrate, 90 min at 25° C.; read-out: IC50p70S6K. As to the method: P70S6K inhibitor compounds are diluted and plated in 96 well plates. A reaction mixture including the following components is then added to the compound plate to initiate the enzyme reaction; P70S6K (3 nM, T412E mutant, Millipore) is mixed with 24 μM ATP in an assay buffer containing 100 mM Hepes (pH 7.5), 5 mM MgCl2, 1 mM DTT, 0.015% Brij and 1 μM of the substrate peptide FITC-AHA-AKRRRLSSLRA-OH (derived from the S6 ribosomal protein sequence, FITC=fluorescein isothiocyanate, AHA=6-aminohexanoic acid). The reaction is incubated for 90 min at 25° C., before the addition of 10 mM EDTA to stop the reaction. The proportion of substrate and product (phosphorylated) peptide is analyzed on a Caliper Life Sciences Lab Chip 3000, using a pressure of −1.4 psi, and upstream and downstream voltages of −3000 and −700 respectively. Product peaks are resolved before substrate peaks on the resulting chromatograms.
To assess the inhibitory potential of the compounds, IC50-values were determined, as shown in Chemical Synthesis section above.

T1 sequence (P23443 whole entry T412E): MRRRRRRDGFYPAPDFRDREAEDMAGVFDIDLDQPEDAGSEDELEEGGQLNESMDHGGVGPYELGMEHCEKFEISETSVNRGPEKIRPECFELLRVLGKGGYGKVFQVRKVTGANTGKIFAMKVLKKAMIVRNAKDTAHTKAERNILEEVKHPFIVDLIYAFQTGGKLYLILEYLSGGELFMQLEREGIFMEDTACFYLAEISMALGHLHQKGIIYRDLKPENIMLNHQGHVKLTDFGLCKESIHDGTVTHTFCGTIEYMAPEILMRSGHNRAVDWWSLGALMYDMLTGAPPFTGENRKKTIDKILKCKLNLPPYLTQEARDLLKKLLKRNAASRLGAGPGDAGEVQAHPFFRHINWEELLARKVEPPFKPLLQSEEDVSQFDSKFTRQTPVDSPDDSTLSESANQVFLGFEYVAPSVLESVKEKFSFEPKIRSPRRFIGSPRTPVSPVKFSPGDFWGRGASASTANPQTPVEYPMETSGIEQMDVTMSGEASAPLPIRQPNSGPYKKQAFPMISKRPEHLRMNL

For `NC(=O)c1cccc2c(N[C@H]3CNC[C@@H]3c3cccc(OC(F)(F)F)c3)ncnc12` (racemic) [compound 56], the IC50 amounted to 2.4 nM. Under `COc1ccc([C@H]2CNC[C@@H]2Nc2ncnc3c(C(N)=O)cccc23)cc1` [compound 97, 4-(((3R,4S)-4-(4-methoxyphenyl)pyrrolidin-3-yl)amino)quinazoline-8-carboxamide] stands 81 nM; under `NC(=O)c1cccc2c(N[C@@H]3CNC[C@H]3c3cccc(Cl)c3F)ncnc12` (racemic) [compound 109], 2.1 nM; under `Cc1cc([C@@H]2CNC[C@H]2Nc2ncnc3c(C(N)=O)cccc23)ccc1F` [compound 76, 4-(((3S,4R)-4-(4-fluoro-3-methylphenyl)pyrrolidin-3-yl)amino)quinazoline-8-carboxamide], 3.4 nM. Regarding `NC(=O)c1cccc2c(N[C@@H]3CNC[C@H]3c3cccc(F)c3)ncnc12` [compound 67, 4-(((3S,4R)-4-(3-fluorophenyl)pyrrolidin-3-yl)amino)quinazoline-8-carboxamide], the IC50 was determined as 1.54 nM.

On to `COc1cccc([C@@H]2CNC[C@H]2Nc2ncnc3c(C(N)=O)cccc23)c1` [compound 73, 4-(((3S,4R)-4-(3-methoxyphenyl)pyrrolidin-3-yl)amino)quinazoline-8-carboxamide], for which the IC50 was determined as 6.4 nM.

Regarding `Cc1cc([C@H]2CNC[C@@H]2Nc2ncnc3c(C(N)=O)cccc23)ccc1F` [compound 75, 4-(((3R,4S)-4-(4-fluoro-3-methylphenyl)pyrrolidin-3-yl)amino)quinazoline-8-carboxamide], the IC50 was 64 nM. Under `Cc1nc(N[C@@H]2CNCC[C@H]2c2ccccc2)c2cccc(C(N)=O)c2n1` (racemic) [compound 40, 2-methyl-4-((4-phenylpiperidin-3-yl)amino)quinazoline-8-carboxamide] stands 6.4 nM; under `NC(=O)c1cccc2c(N[C@H]3CNC[C@@H]3c3cccc(F)c3)ncnc12` (racemic) [compound 2, 4-((4-(3-fluorophenyl)pyrrolidin-3-yl)amino)quinazoline-8-carboxamide], 3 nM.

For `Cc1nc(NC2CNCC2c2ccc(F)cc2)c2cccc(C(N)=O)c2n1` (stereo not shown) [compound 17, 4-((4-(4-fluorophenyl)pyrrolidin-3-yl)amino)-2-methylquinazoline-8-carboxamide], the IC50 turned out to be 2.4 nM. Consider `NC(=O)c1cccc2c(N[C@@H]3CNC[C@H]3c3ccccc3Cl)ncnc12` [compound 66, 4-(((3S,4R)-4-(2-chlorophenyl)pyrrolidin-3-yl)amino)quinazoline-8-carboxamide], for which the IC50 was determined as 1.4 nM. Turning to `NC(=O)c1cccc2c(N[C@@H]3CNCC[C@H]3c3cccc(C(F)(F)F)c3)ncnc12` [compound 131, 4-(((3S,4S)-4-(3-(trifluoromethyl)phenyl)piperidin-3-yl)amino)quinazoline-8-carboxamide], the IC50 turned out to be 160 nM. `COc1ccc([C@@H]2CNC[C@H]2Nc2ncnc3c(C(N)=O)cccc23)cc1` [compound 96, 4-(((3S,4R)-4-(4-methoxyphenyl)pyrrolidin-3-yl)amino)quinazoline-8-carboxamide]: the IC50 was 4.1 nM. With `COc1ccc([C@@H]2CCNC[C@H]2Nc2ncnc3c(C(N)=O)cccc23)cc1OC` (racemic) [compound 139] the figure was 18 nM; with `COc1cccc([C@H]2CNC[C@@H]2Nc2ncnc3c(C(N)=O)cccc23)c1` [compound 72, 4-(((3R,4S)-4-(3-methoxyphenyl)pyrrolidin-3-yl)amino)quinazoline-8-carboxamide], 360 nM.

On to `NC(=O)c1cccc2c(N[C@H]3CNC[C@@H]3c3ccc4ncccc4c3)ncnc12` [compound 70, 4-(((3R,4S)-4-(quinolin-6-yl)pyrrolidin-3-yl)amino)quinazoline-8-carboxamide], for which the IC50 worked out at 3.3 nM. In the case of `NC(=O)c1cccc2c(N[C@H]3CNC[C@@H]3c3cccc(F)c3)ncnc12` [compound 68, 4-(((3R,4S)-4-(3-fluorophenyl)pyrrolidin-3-yl)amino)quinazoline-8-carboxamide], the IC50 worked out at 48 nM. Under `CCc1nc(N[C@@H]2CNCC[C@H]2c2cccc(C(F)(F)F)c2)c2cccc(C(N)=O)c2n1` (racemic) [compound 125] stands 3.9 nM; under `NC(=O)c1cccc2c(N[C@H]3CNC[C@@H]3c3ccc(C(F)(F)F)cc3)ncnc12` [compound 53, 4-(((3R,4S)-4-(4-(trifluoromethyl)phenyl)pyrrolidin-3-yl)amino)quinazoline-8-carboxamide], 66 nM. Under `NC(=O)c1cccc2c(N[C@@H]3CNCC[C@H]3c3cccc(F)c3)ncnc12` (racemic) [compound 28, 4-((4-(3-fluorophenyl)piperidin-3-yl)amino)quinazoline-8-carboxamide] stands 1.8 nM; under `Cc1cccc([C@@H]2CCNC[C@H]2Nc2ncnc3c(C(N)=O)cccc23)c1` (racemic) [compound 31, 4-((4-(m-tolyl)piperidin-3-yl)amino)quinazoline-8-carboxamide], 3.1 nM; under `Cc1c(F)cccc1[C@@H]1CNC[C@H]1Nc1ncnc2c(C(N)=O)cccc12` [compound 94, 4-(((3S,4R)-4-(3-fluoro-2-methylphenyl)pyrrolidin-3-yl)amino)quinazoline-8-carboxamide], 52 nM. With `COc1ccc(C2CNCC2Nc2nc(C)nc3c(C(N)=O)cccc23)cc1` (stereo not shown) [compound 18, 4-((4-(4-methoxyphenyl)pyrrolidin-3-yl)amino)-2-methylquinazoline-8-carboxamide] the figure was 1.8 nM.

Turning to `Cc1cc(C)cc(C2CCNCC2Nc2ncnc3c(C(N)=O)cccc23)c1` (racemic) [compound 145, 4-((4-(3,5-dimethylphenyl)piperidin-3-yl)amino)quinazoline-8-carboxamide], the IC50 came out at 10 nM.

With `NC(=O)c1cccc2c(NC3CNCC3c3c(F)cccc3Cl)ncnc12` (racemic) [compound 10, 4-((4-(2-chloro-6-fluorophenyl)pyrrolidin-3-yl)amino)-quinazoline-8-carboxamide], the IC50 worked out at 7 nM. With `NC(=O)c1cccc2c(N[C@H]3CNC[C@@H]3c3cc(F)cc(C(F)(F)F)c3)ncnc12` (racemic) [compound 45] the figure was 1.9 nM. Consider `Cc1nc(N[C@@H]2CNCC[C@H]2c2ccc(F)cc2)c2cccc(C(N)=O)c2n1` (racemic) [compound 134], for which the IC50 turned out to be 4.2 nM.

Take `Cc1nc(N[C@@H]2CNCC[C@H]2c2cccc(C(F)(F)F)c2)c2cccc(C(N)=O)c2n1` (racemic) [compound 138, 2-methyl-4-(((3R,4R)-4-(3-(trifluoromethyl)phenyl)piperidin-3-yl)amino)quinazoline-8-]: the IC50 turned out to be 2.7 nM. Consider `Cc1nc(N[C@@H]2CNCC[C@H]2c2ccc(F)cc2)c2cccc(C(N)=O)c2n1` (racemic) [compound 132], for which the IC50 worked out at 5.4 nM. `NC(=O)c1cccc2c(N[C@H]3CNCC[C@@H]3c3cccc(C(F)(F)F)c3)ncnc12` [compound 130, 4-(((3R,4R)-4-(3-(trifluoromethyl)phenyl)piperidin-3-yl)amino)quinazoline-8-carboxamide]: the IC50 was determined as 1.2 nM. Under `NC(=O)c1cccc2c(N[C@H]3CNC[C@@H]3c3ccc(-c4cccnc4)c(F)c3)ncnc12` (racemic) [compound 121] stands 6 nM. With `NC(=O)c1cccc2c(N[C@H]3CNC[C@@H]3c3ccc(F)c(Cl)c3)ncnc12` (racemic) [compound 100] the figure was 1.4 nM; with `Cc1c(F)cccc1[C@H]1CNC[C@@H]1Nc1ncnc2c(C(N)=O)cccc12` [compound 93, 4-(((3R,4S)-4-(3-fluoro-2-methylphenyl)pyrrolidin-3-yl)amino)quinazoline-8-carboxamide], 1.2 nM. With `COc1ccc([C@H]2CNC[C@@H]2Nc2ncnc3c(C(N)=O)cccc23)cc1F` (racemic) [compound 102] the figure was 2.9 nM. `NC(=O)c1cccc2c(N[C@H]3CNC[C@@H]3c3cc(F)cc(C(F)(F)F)c3)ncnc12` [compound 47, 4-(((3R,4S)-4-(3-fluoro-5-(trifluoromethyl)phenyl)pyrrolidin-3-yl)amino)quinazoline-8-carboxamide]: the IC50 came to 160 nM. With `NC(=O)c1cccc2c(N[C@@H]3CNCC[C@H]3c3ccc(C(F)(F)F)cc3)ncnc12` (racemic) [compound 127] the figure was 2 nM. Under `NC(=O)c1cccc2c(N[C@H]3CNCC[C@@H]3c3ccc(C(F)(F)F)cc3)ncnc12` [compound 129, 4-(((3R,4R)-4-(4-(trifluoromethyl)phenyl)piperidin-3-yl)amino)quinazoline-8-carboxamide] stands 1.2 nM; under `NC(=O)c1cccc2c(NC3CNCC3c3ccc(F)cc3)ncnc12` (stereo not shown) [compound 5, 4-((4-(4-fluorophenyl)pyrrolidin-3-yl)amino)quinazoline-8-carboxamide], 2.6 nM.

Consider `CN1CC(Nc2ncnc3c(C(N)=O)cccc23)C(c2cccc(F)c2)C1` (racemic) [compound 12, 4-((4-(3-fluorophenyl)-1-methylpyrrolidin-3-yl)amino)quinazoline-8-carboxamide], for which the IC50 turned out to be 23 nM. `NC(=O)c1cccc2c(N[C@@H]3CNC[C@H]3c3ccc4ncccc4c3)ncnc12` [compound 71, 4-(((3S,4R)-4-(quinolin-6-yl)pyrrolidin-3-yl)amino)quinazoline-8-carboxamide]: the IC50 was 62 nM.
